In data set [1] the test system is male SD rats. Kind of data set: in vivo. As to conditions: for Observations of Animal Status: one animal per row, observed 24 hours. As for the experimental part: (§1) In an experiment about acute toxicity of intravenous administration, male SD rats weighing 200-230 g were dosed in a range between 480 µg/Kg and 30 µg/Kg via tail vein injection in a descending order of dosage. […] Toxic response and mortality of the rats were preliminarily observed, and time of death and doses without mortality of the rats were recorded. The level of acute toxicity of the polypeptides was preliminarily determined based on the doses without mortality.

Another data set in a line: in vivo. The following applies: male, SD, rat, in vivo, iv. The protocol:
as §1

Data set [2] in a line: Determination of half-lives of polypeptides (plasma, LC-MS). As to conditions: for half-life: C57 BL/6, mouse, plasma, iv.
The target of the next data set is T1, human ETA receptor (Homo sapiens, UniProt P25101).
T1 construct: expressed in transfected cells; host or cells: 293T-17 cells, transient transfection
T1 sequence (P25101 21-427): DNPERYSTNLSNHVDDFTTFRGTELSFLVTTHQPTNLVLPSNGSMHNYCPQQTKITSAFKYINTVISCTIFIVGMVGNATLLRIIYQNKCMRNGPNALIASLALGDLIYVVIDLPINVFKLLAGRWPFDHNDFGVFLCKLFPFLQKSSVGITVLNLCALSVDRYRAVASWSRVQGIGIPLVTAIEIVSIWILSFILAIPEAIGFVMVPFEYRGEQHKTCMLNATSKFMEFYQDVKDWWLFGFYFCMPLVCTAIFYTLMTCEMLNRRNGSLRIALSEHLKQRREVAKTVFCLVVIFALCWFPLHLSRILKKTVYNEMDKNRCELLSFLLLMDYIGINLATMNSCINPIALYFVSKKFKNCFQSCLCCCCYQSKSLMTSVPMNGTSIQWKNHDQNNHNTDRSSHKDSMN
In words: Selectivity of polypeptides on human ETA receptor (IP-One Gq kit, % of positive control ET1). The format is cell-based. As to conditions: read-out: hETAR agonist activity, percentage of activity relative to ET1. In short, it runs like this:
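293T-17 cells transiently transfected with human ETA receptor (48 h), 30,000 cells/well exposed to polypeptides for 1 h at 37°C; IP1 accumulation by HTRF (665/620 nm ratio). Activity given as % of ET1 at the same concentration after PBS-control subtraction.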

The test system of data set [3] is male SD rats. The following applies: one animal per row, observed 48 hours. The protocol:
In an experiment about acute toxicity of subcutaneous administration, male SD rats weighing 200-230 g were dosed in a range between 60 µg/Kg and 960 µg/Kg. Observation was made for 48 hours after subcutaneous administration. Toxic response and mortality of the rats were preliminarily observed, and time of death and doses without mortality were recorded. The level of acute toxicity of the polypeptides was preliminarily determined based on the doses without mortality.

Where [4] appears, read: intravenous (tail vein) 120 µg/Kg.
Setting [5] is: intravenous (tail vein) 240 µg/Kg.
Where [6] appears, read: intravenous (tail vein) 480 µg/Kg.
Setting [7] is: intravenous (tail vein) 360 µg/Kg.

Entries after “also recorded” stand apart in the source; their conditions may differ. Like-named read-outs stand apart in the source and are kept apart here. Numbered stars: 1 amine (or outer) side, 2 acyl side, 3 side chain; on linkers, the order of the positions; unused ones are H or OH. Side chains are listed from the residue outwards. Peptide text beside a SMILES is read from it. * marks the point of attachment. C18 diacid = O=C(O)CCCCCCCCCCCCCCCCC(=O)*; γGlu = O=C(O)[C@H](CCC(=O)[*:2])N[*:1]; Fumaroyl = O=C(O)/C=C/C(=O)*; Lauroyl = CCCCCCCCCCCC(=O)*; AEEA = NCCOCCOCC(=O)O

As a reminder, the half-life is the time needed for the level to fall by half in the phase considered. A high value points to slow decline. On to `CCCCCCCCCCCC(=O)N[C@@H](CCC(=O)O)C(=O)NCCOCCOCC(=O)NCCCC[C@H](NC(=O)[C@H](Cc1c[nH]cn1)NC(=O)[C@H](C)NC(=O)[C@H](Cc1ccccc1)NC(=O)[C@H](Cc1ccc(O)cc1)NC(=O)[C@@H](NC(=O)[C@H](C)NC(=O)[C@H](CCC(=O)O)NC(=O)[C@H](CCC(=O)O)NC(=O)[C@H](CC(=O)O)NC(=O)/C=C/C(=O)O)C(C)C)C(=O)N[C@@H](CC(=O)O)C(=O)N[C@H](C(=O)N[C@H](C(=O)N[C@@H](Cc1c[nH]c2ccccc12)C(=O)O)[C@@H](C)CC)C(C)C` [BX-238] (Fumaroyl-DEEAVYFAHK([AEEA-Glu-Lauroyl])DVIW-OH), for which the “Observations of Animal Status” value in the data set with male SD rats [1] (intravenous (tail vein) 30 µg/Kg) is “Breathing speeded up at 53 minutes, showed no willingness to move at 1.2 hours; found dead the next morning (estimated to have died during the night); also recorded: Breathing speeded up at 50 minutes, showed no willingness to move at 1.2 hours; found dead the next morning (estimated to have died during the night)”; in the data set on male SD rats [1] (intravenous (tail vein) 60 µg/Kg), “Developed rapid breathing at 40-45 minutes; died at 1 hour”; with male SD rats [1] (setting [4]), “Developed rapid breathing at 5 minutes, the eyes turned pale and purple at 14 minutes; died at 16 minutes”; with male SD rats [1] (setting [5]) it was “Developed abdominal breathing at 5-6 minutes, developed rapid breathing and collapsed at 9 minutes; died at 11 minutes”. For the same molecule, the MTD at 24 h in the data set “in vivo” came to 0.03 mg/kg. In addition, the half-life in data set [2] amounted to 53 min. The activation at 10 µM on human ETA receptor is -4.74%. Further, the activation at 100 µM on human ETA receptor is -5.07%.

As for `CCCCCCCCCCCC(=O)N[C@@H](CCC(=O)O)C(=O)NCCOCCOCC(=O)NCCCC[C@H](NC(=O)[C@H](Cc1c[nH]cn1)NC(=O)[C@H](C)NC(=O)[C@H](Cc1ccccc1)NC(=O)[C@H](Cc1ccc(O)cc1)NC(=O)[C@@H](NC(=O)[C@H](C)NC(=O)[C@H](CCC(=O)O)NC(=O)[C@H](CCC(=O)O)NC(=O)[C@H](CC(=O)O)NC(=O)/C=C/C(=O)O)C(C)C)C(=O)N[C@@H](CC(=O)O)C(=O)N[C@H](C(=O)N[C@H](C(=O)N[C@@H](Cc1c[nH]c2ccccc12)C(=O)O)[C@@H](C)CC)C(C)C` [BX238-Na] (Fumaroyl-DEEAVYFAHK([AEEA-Glu-Lauroyl])DVIW-OH), the “Observations of Animal Status” value in the data set on male SD rats [3] (subcutaneous 240 µg/Kg) is listed as “No obvious abnormal reaction observed within 48 hours”; in the data set on male SD rats [3] (subcutaneous 360 µg/Kg), “No obvious abnormal reaction observed within 48 hours”; in the data set with male SD rats [3] (subcutaneous 480 µg/Kg), “Developed rapid breathing at 50 minutes after administration, showed no willingness to move, recovered 2 hours after administration; also recorded: Developed rapid breathing at 21 minutes after administration, died at 26 minutes after administration; also recorded: Developed rapid breathing at 10 minutes after administration, died at 47 minutes after administration; also recorded: Developed rapid breathing at 45 minutes after administration, showed no willingness to move, recovered 2 hours after administration; also recorded: Developed rapid breathing at 20 minutes after administration, died at 55 minutes after administration”.

Regarding `CC[C@H](C)[C@H](NC(=O)[C@H](CC(=O)O)NC(=O)[C@H](CC(C)C)NC(=O)[C@H](Cc1c[nH]cn1)NC(=O)[C@H](C)NC(=O)[C@H](Cc1ccccc1)NC(=O)[C@H](Cc1ccc(O)cc1)NC(=O)[C@@H](NC(=O)[C@H](C)NC(=O)[C@H](CCC(=O)O)NC(=O)[C@H](CCC(=O)O)NC(=O)[C@H](CCCCNC(=O)COCCOCCNC(=O)COCCOCCNC(=O)CC[C@H](NC(=O)CCCCCCCCCCCCCCCCC(=O)O)C(=O)O)NC(=O)/C=C/C(=O)O)C(C)C)C(=O)N[C@H](C(=O)N[C@@H](Cc1c[nH]c2ccccc12)C(=O)O)[C@@H](C)CC` [BX-253] (Fumaroyl-K([AEEA-AEEA-γGlu-C18 diacid])EEAVYFAHLDIIW-OH), the “Observations of Animal Status” value with male SD rats [1] (setting [5]) is recorded as “No abnormalities”. Besides, the “Observations of Animal Status” value in the data set on male SD rats [1] (setting [6]) is “No abnormalities”. Besides, in the data set on male SD rats [1] (male SD rats, tail vein injection), the “acute toxicity of intravenous administration (comparison among polypeptides)” value was “lowest acute toxicity”. Moreover, the MTD at 24 h in “in vivo” came to 0.48 mg/kg. Besides, the half-life in data set [2] came to 63 min. The “AUClast 0-30 min” value in data set [2] (C57 BL/6 mice, i.v., dosage per compound 0.48, 0.96 or 1 mpk) stood at 3989 ng·h/mL. On human ETA receptor, the activation at 10 µM is -12.9% and the activation at 100 µM was -9.03%.

As for `CC[C@H](C)[C@H](NC(=O)[C@H](CC(=O)O)NC(=O)[C@H](CC(C)C)NC(=O)[C@H](Cc1c[nH]cn1)NC(=O)[C@H](C)NC(=O)[C@H](Cc1ccccc1)NC(=O)[C@H](Cc1ccc(O)cc1)NC(=O)[C@@H](NC(=O)[C@H](C)NC(=O)[C@H](CCC(=O)O)NC(=O)[C@H](CCC(=O)O)NC(=O)[C@H](CC(=O)O)NC(=O)[C@H](CC(=O)O)NC(=O)COCCOCCNC(=O)COCCOCCNC(=O)CC[C@H](NC(=O)CCCCCCCCCCCCCCCCC(=O)O)C(=O)O)C(C)C)C(=O)N[C@H](C(=O)N[C@@H](Cc1c[nH]c2ccccc12)C(=O)O)[C@@H](C)CC` [BX-255] ({C18 diacid-γGlu-AEEA-AEEA}-DDEEAVYFAHLDIIW-OH), the “Observations of Animal Status” value in the data set with male SD rats [1] (setting [4]) is “No obvious adverse reactions in the first 1 hour; breathing became slightly faster at nearly 2 hours; was in good condition and recovered when observed the next day; also recorded: Showed no willingness to move at 9 minutes; recovered at 1 hour and 10 minutes; also recorded: Lay still and showed no willingness to move at 12 minutes; became active at 17 minutes; signs of pain were observed in the animal through pupil observation; no pain at 28 minutes; also recorded: Developed difficulty in breathing at 17 minutes, recovered to normal in about 10 seconds; signs of pain were observed in the animal through pupil observation; no pain at 28 minutes”; in the data set on male SD rats [1] (setting [5]), “No obvious reaction in the first 27 minutes after administration; breathing speeded up at 27 minutes; died at 49 minutes after administration; also recorded: No obvious reaction in the first 24 minutes after administration; breathing speeded up at 27 minutes; died at 43 minutes after administration”; in the data set on male SD rats [1] (setting [7]), “The body turned purple at 12 minutes after administration; died at 22 minutes after administration”; in the data set on male SD rats [1] (setting [6]) it was “The body turned purple at 23 minutes after administration; died at 29 minutes after administration”. Further, the MTD at 24 h in “in vivo” is 0.12 mg/kg.

In the case of `CC[C@H](C)[C@H](NC(=O)[C@H](CC(=O)O)NC(=O)[C@H](CC(C)C)NC(=O)[C@H](Cc1c[nH]cn1)NC(=O)[C@H](C)NC(=O)[C@H](Cc1ccccc1)NC(=O)[C@H](Cc1ccc(O)cc1)NC(=O)[C@@H](NC(=O)[C@H](C)NC(=O)[C@H](CCC(=O)O)NC(=O)[C@H](CCCCNC(=O)COCCOCCNC(=O)COCCOCCNC(=O)CC[C@H](NC(=O)CCCCCCCCCCCCCCCCC(=O)O)C(=O)O)NC(=O)[C@H](CC(=O)O)NC(=O)/C=C/C(=O)O)C(C)C)C(=O)N[C@H](C(=O)N[C@@H](Cc1c[nH]c2ccccc12)C(=O)O)[C@@H](C)CC` [BX-254] (Fumaroyl-DK([AEEA-AEEA-γGlu-C18 diacid])EAVYFAHLDIIW-OH), the “Observations of Animal Status” value was “No obvious abnormalities; also recorded: Developed rapid breathing, the limbs turned purple, developed breathing depression, and limbs moved like swimming at 15 minutes after administration; then died at 20 minutes after administration; also recorded: Developed rapid breathing, the limbs turned purple, and had weak limbs at 14 minutes after administration; died of breathing depression at 21 minutes after administration” in the data set with male SD rats [1] (setting [5]); “The body turned purple at 16 minutes after administration; died at 26 minutes after administration” in the data set on male SD rats [1] (setting [7]); “The body turned purple at 22 minutes after administration; died at 25 minutes after administration” with male SD rats [1] (setting [6]). Further, the MTD at 24 h in the data set “in vivo” is 0.12 mg/kg.

Source of the values: patent EP4702986A1, “POLYPEPTIDE AND USE THEREOF” (Biocells (Beijing) Biotech Co., Ltd., priority 2023, dated 2024).
